Read-outs that look alike come from different tables or passages of the source.

One assay deals with T1, human JAK1 (Homo sapiens, UniProt P23458).
T1 construct: catalytic domain, amino acids 866-1154; catalog number PV4774; purchased Invitrogen PV4774
Briefly: JAK1 inhibition assay (polyGT substrate / Ulight-JAK1 peptide). In kind it is biochemical. Particulars: recombinant human JAK1 catalytic domain; polyGT or Ulight-JAK1 peptide assay. In a few lines: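 Signal scaled between vehicle and 10 μM staurosporine. Radiometric polyGT reactions ran 45 min at 30 °C, counted after phosphoric-acid stop. Ulight peptide reactions ran 60 min at room temperature, fluorescence read after adding Eu-PT66 detection mix with EDTA.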

A further assay concerns the target T2, human JAK3 (Homo sapiens, UniProt P52333).
T2 construct: catalytic domain (amino acids 781-1124; catalog number PV3855); purchased Invitrogen PV3855
Description: JAK3 inhibition assay. Type of assay: biochemical. Particulars: recombinant human JAK3 catalytic domain; polyGT substrate. In a few lines:
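Radiometric kinase assay: 0.5 ng JAK3 with 2.5 μg polyGT in Tris pH 7.5/MgCl2 buffer, 1 μM ATP plus 0.25 μCi 33P-γ-ATP, 1% DMSO, 45 min at 30 °C, stopped with phosphoric acid.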

The next assay addresses T3, human TYK2 (Homo sapiens, UniProt P29597).
T3 construct: catalytic domain (amino acids 871-1187; catalog number 08-147); purchased Carna Biosciences 08-147
T3 sequence (P29597 871-1187): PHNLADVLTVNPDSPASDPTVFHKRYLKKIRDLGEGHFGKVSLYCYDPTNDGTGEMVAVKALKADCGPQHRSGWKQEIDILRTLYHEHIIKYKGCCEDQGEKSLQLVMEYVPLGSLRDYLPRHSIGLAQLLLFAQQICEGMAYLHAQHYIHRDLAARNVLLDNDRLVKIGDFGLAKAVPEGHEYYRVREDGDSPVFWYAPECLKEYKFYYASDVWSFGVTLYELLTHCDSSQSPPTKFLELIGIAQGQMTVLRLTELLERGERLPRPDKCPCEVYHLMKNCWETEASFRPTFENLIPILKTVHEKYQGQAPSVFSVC
Description: TYK2 inhibition assay. In kind it is biochemical. Particulars: recombinant human TYK2 catalytic domain, polyGT substrate. In a few lines: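 Radiometric kinase reaction run 90 min at 30 °C, stopped with phosphoric acid, washed and scintillation-counted.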

For assay [1], the system named is pSTAT1(2)-luciferase reporter in HeLa cells triggered with human OSM. Description: JAK-STAT signalling assay. Type of assay: cell-based. The conditions noted are these: HeLa cells, pSTAT1(2)-luciferase reporter, human OSM 33 ng/mL, read-out: JAK-STAT IC50. In a few lines: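 Compound added 60 min before 33 ng/mL (final) human OSM; after overnight stimulation at 37 °C, luciferase signal from a transiently transfected pSTAT1(2) reporter in HeLa cells was read, with LacZ as internal control. EC50 derived from percent-inhibition dose-response curves.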
For orientation: In a reporter assay the amount or activity of a reporter protein is the signal.

The test system of the next assay is CTLL-2 cell line. Description: CTLL2 viability assay. Type of assay: cell-based. The conditions noted are these: Mus musculus, IL-2 dependent CTLL2 viability, 24 h, ATP-lite. An excerpt: The protocol describes the methods to analyse the activity of compounds on their ability to sustain the IL2-dependent viability of CTLL2.
Final DMSO concentration was 0.1%.

The subject of another assay is BA/F3 cell line. Description: BA/F3 viability assay. Particulars: Mus musculus, BaF3, 48 h, read-out: BA/F3 IC50.
A further assay deals with T4, human JAK2 (Homo sapiens, UniProt O60674).
T4 construct: catalytic domain (amino acids 808-1132; catalog number PV4210); GST; purchased Invitrogen PV4210
T4 sequence (O60674 808-1132): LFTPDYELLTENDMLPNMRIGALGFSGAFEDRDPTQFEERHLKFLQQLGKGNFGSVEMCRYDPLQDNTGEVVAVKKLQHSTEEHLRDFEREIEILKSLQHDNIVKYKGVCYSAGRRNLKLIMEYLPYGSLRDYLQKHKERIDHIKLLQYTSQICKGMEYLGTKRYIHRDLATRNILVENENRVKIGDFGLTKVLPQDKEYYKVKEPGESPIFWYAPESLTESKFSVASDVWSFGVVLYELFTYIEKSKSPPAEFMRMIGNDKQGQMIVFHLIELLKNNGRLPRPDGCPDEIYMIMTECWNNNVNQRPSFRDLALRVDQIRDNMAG
Briefly: JAK2 inhibition assay (polyGT substrate / Ulight-JAK1 peptide). Type of assay: biochemical. The conditions noted are these: recombinant human JAK2 catalytic domain; polyGT or Ulight-JAK1 peptide assay. In a few lines:
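Two JAK2 formats: a ^33P-ATP polyGT assay (1 μM cold ATP, 90 min, 30° C., cpm read-out) and a Ulight-JAK1 peptide assay read by Europium-anti-phosphotyrosine fluorescence after 60 min at room temperature.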

T2 sequence (P52333 781-1124): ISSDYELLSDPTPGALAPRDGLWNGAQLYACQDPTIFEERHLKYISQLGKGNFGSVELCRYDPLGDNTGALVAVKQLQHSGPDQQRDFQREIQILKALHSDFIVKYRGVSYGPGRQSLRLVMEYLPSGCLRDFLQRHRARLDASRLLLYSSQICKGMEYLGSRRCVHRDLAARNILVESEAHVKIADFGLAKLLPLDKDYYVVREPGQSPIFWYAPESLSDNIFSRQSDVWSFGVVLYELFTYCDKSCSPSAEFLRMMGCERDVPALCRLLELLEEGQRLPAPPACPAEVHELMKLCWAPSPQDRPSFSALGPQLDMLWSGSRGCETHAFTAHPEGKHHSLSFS
T1 sequence (P23458 866-1154): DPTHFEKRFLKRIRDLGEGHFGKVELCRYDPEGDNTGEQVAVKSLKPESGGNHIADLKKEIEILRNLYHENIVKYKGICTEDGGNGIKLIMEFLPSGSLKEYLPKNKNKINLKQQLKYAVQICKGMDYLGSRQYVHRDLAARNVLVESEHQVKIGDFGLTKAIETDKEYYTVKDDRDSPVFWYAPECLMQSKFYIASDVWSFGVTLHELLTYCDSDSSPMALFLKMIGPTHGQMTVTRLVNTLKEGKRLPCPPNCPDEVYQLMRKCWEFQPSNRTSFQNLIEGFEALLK

`CCc1cc(-c2cncs2)ccc1N(C)c1cc2c(cn1)ncn2C` [Compound 151, N-(2-Ethyl-4-(thiazol-5-yl)phenyl)-N,1-dimethyl-1H-imidazo[4,5-c]pyridin-6-amine]: the IC50 on human JAK1 is 0.01 to 100 nM; at human JAK3, 0.01 to 100 nM; on human TYK2, 0.01 to 100 nM; in assay [1] (Homo sapiens, HeLa), 1 to 500 nM; in the assay with CTLL-2 cell line it was above 1000 nM; in the assay on BA/F3 cell line, 1000 to 5000 nM.

Take `CCc1cc(CNC2COC2)ccc1N(C)c1cc2c(cn1)ncn2C` [Compound 167, N-(2-ethyl-4-((oxetan-3-ylamino)methyl)phenyl)-N,1-dimethyl-1H-imidazo[4,5-c]pyridin-6-amine]: the IC50 at human JAK1 is 0.01 to 100 nM; on human JAK3, above 1000 nM; on human TYK2, 501 to 1000 nM; in assay [1], above 1000 nM; in the assay on CTLL-2 cell line, above 1000 nM; in the assay on BA/F3 cell line, above 5000 nM.

Consider `CCc1cc(CNC(C)=O)ccc1N(C)c1cc2c(cn1)ncn2C` [Compound 182, N-(3-Ethyl-4-(methyl(1-methyl-1H-imidazo[4,5-c]pyridin-6-yl)amino)benzyl)acetamide], for which the IC50 on human JAK1 is 0.01 to 100 nM; on human JAK3, 501 to 1000 nM; on human TYK2, 101 to 500 nM; in assay [1] (Homo sapiens, HeLa), above 1000 nM; in the assay with CTLL-2 cell line it was above 1000 nM; in the assay on BA/F3 cell line it was above 5000 nM.

`CCc1cc(C2CCOCC2)ccc1N(C)c1cc2c(cn1)ncn2C` [Compound 186, N-(2-Ethyl-4-(tetrahydro-2H-pyran-4-yl)phenyl)-N,1-dimethyl-1H-imidazo[4,5-c]pyridin-6-amine]: the IC50 at human JAK1 was 0.01 to 100 nM; at human JAK3, 101 to 500 nM; at human TYK2 it was 0.01 to 100 nM; in assay [1] (Homo sapiens, HeLa) it was 1 to 500 nM; with CTLL-2 cell line, above 1000 nM; in the assay on BA/F3 cell line it was 1000 to 5000 nM.

For the molecule `CCc1cc(CNS(C)(=O)=O)ccc1N(C)c1cc2c(cn1)ncn2C` [Compound 190, N-(3-Ethyl-4-(methyl(1-methyl-1H-imidazo[4,5-c]pyridin-6-yl)amino)benzyl)methane sulfonamide], the IC50 on human JAK1 is 0.01 to 100 nM; on human JAK3, 0.01 to 100 nM; on human TYK2, 0.01 to 100 nM; in assay [1] (Homo sapiens, HeLa), 1 to 500 nM; with CTLL-2 cell line it was above 1000 nM; with BA/F3 cell line, 1000 to 5000 nM.

For `CCc1cc(-c2cncc(C(F)(F)F)c2)ccc1N(C)c1cc2c(cn1)ncn2C` [Compound 194, N-(2-ethyl-4-(5-(trifluoromethyl)pyridin-3-yl)phenyl)-N,1-dimethyl-1H-imidazo[4,5-c]pyridin-6-amine], the IC50 on human JAK1 was 0.01 to 100 nM; at human JAK3, above 1000 nM; on human TYK2, 501 to 1000 nM; in assay [1] (Homo sapiens, HeLa), above 1000 nM; in the assay with CTLL-2 cell line, above 1000 nM; in the assay on BA/F3 cell line, 1000 to 5000 nM.

Turning to `CCc1cc(C2=CCN(C(=O)CC#N)CC2)ccc1N(C)c1cc2c(cn1)ncn2C` [Compound 195, 3-(4-(3-Ethyl-4-(methyl(1-methyl-1H-imidazo[4,5-c]pyridin-6-yl)amino)phenyl)-5,6-dihydropyridin-1(2H)-yl)-3-oxopropanenitrile], the IC50 on human JAK1 was 0.01 to 100 nM; on human JAK3, 101 to 500 nM; on human TYK2, 0.01 to 100 nM; in assay [1] (Homo sapiens, HeLa), 501 to 1000 nM; in the assay with CTLL-2 cell line it was above 1000 nM; in the assay with BA/F3 cell line it was 1000 to 5000 nM.

Consider `CCc1cc(C2=CCN(C(=O)C(F)F)CC2)ccc1N(C)c1cc2c(cn1)ncn2C` [Compound 197, 1-(4-(3-ethyl-4-(methyl(1-methyl-1H-imidazo[4,5-c]pyridin-6-yl)amino)phenyl)-5,6-dihydropyridin-1(2H)-yl)-2,2-difluoroethanone], for which the IC50 at human JAK1 lay in the range of 0.01 to 100 nM; on human JAK3, 0.01 to 100 nM; at human TYK2, 0.01 to 100 nM; in assay [1] (Homo sapiens, HeLa), 1 to 500 nM; in the assay on CTLL-2 cell line, 501 to 1000 nM; in the assay with BA/F3 cell line, 1000 to 5000 nM.

For `CCc1cc(C2CCN(S(C)(=O)=O)CC2)ccc1N(C)c1cc2c(cn1)ncn2C` [Compound 214, N-(2-ethyl-4-(1-(methylsulfonyl)piperidin-4-yl)phenyl)-N,1-dimethyl-1H-imidazo[4,5-c]pyridin-6-amine], the IC50 fell in the range of 0.01 to 100 nM at human JAK1; 0.01 to 100 nM on human TYK2; 1 to 500 nM in assay [1] (Homo sapiens, HeLa); 501 to 1000 nM in the assay with CTLL-2 cell line; 1 to 1000 nM in the assay with BA/F3 cell line.

On to `CN(c1cc2c(cn1)ncn2C)c1c(F)cc(C2CN(S(C)(=O)=O)C2)cc1F` [Compound 409, [2,6-Difluoro-4-(1-methanesulfonyl-azetidin-3-yl)-phenyl]-methyl-(1-methyl-1H-imidazo[4,5-c]pyridin-6-yl)-amine], for which the IC50 at human JAK1 is 0.01 to 100 nM; at human JAK2 it was 101 to 500 nM; at human JAK3, 501 to 1000 nM; at human TYK2, above 1000 nM; with CTLL-2 cell line, above 1000 nM; in the assay with BA/F3 cell line it was above 5000 nM.

As to `CCc1cc(C(C#N)N2CCNC(=O)C2)ccc1N(C)c1cc2c(cn1)ncn2C` (centres unmarked) [Compound 410, {3-Ethyl-4-[methyl-(1-methyl-1H-imidazo[4,5-c]pyridin-6-yl)-amino]-phenyl}-(3-oxo-piperazin-1-yl)-acetonitrile], the IC50 on human JAK1 was 0.01 to 100 nM; on human JAK2, 0.01 to 100 nM; at human JAK3, 0.01 to 100 nM; at human TYK2, 0.01 to 100 nM; in the assay on CTLL-2 cell line it was above 1000 nM; in the assay on BA/F3 cell line, above 5000 nM.

Turning to `CCc1cc(N2CCC(F)(F)C2)ncc1N(C)c1cc2c(cn1)ncn2C` [Compound 411, [6-(3,3-Difluoro-pyrrolidin-1-yl)-4-ethyl-pyridin-3-yl]-methyl-(1-methyl-1H-imidazo[4,5-c]pyridin-6-yl)-amine], the IC50 was 0.01 to 100 nM on human JAK1; 0.01 to 100 nM at human JAK2; 0.01 to 100 nM on human JAK3; 0.01 to 100 nM on human TYK2; above 1000 nM with CTLL-2 cell line; 1000 to 5000 nM in the assay with BA/F3 cell line.

Turning to `CCc1cc(N2CC(F)(F)C2)ncc1N(C)c1cc2c(cn1)ncn2C` [Compound 413, [6-(3,3-Difluoro-azetidin-1-yl)-4-ethyl-pyridin-3-yl]-methyl-(1-methyl-1H-imidazo[4,5-c]pyridin-6-yl)-amine], the IC50 was 0.01 to 100 nM on human JAK1; 0.01 to 100 nM at human JAK2; 101 to 500 nM on human JAK3; 0.01 to 100 nM at human TYK2; above 1000 nM in the assay with CTLL-2 cell line; 1000 to 5000 nM in the assay on BA/F3 cell line.

`CN(c1cc2c(cn1)ncn2C)c1ccc(CNS(C)(=O)=O)cc1OC(F)F` [Compound 429, N-{3-Difluoromethoxy-4-[methyl-(1-methyl-1H-imidazo[4,5-c]pyridin-6-yl)-amino]-benzyl}-methanesulfonamide]: the IC50 was 0.01 to 100 nM at human JAK1; 0.01 to 100 nM at human JAK2; 0.01 to 100 nM at human JAK3; 101 to 500 nM on human TYK2; above 1000 nM in the assay with CTLL-2 cell line; above 5000 nM in the assay with BA/F3 cell line.

Turning to `CN(c1cc2c(cn1)ncn2C)c1ccc(CN(C)S(C)(=O)=O)cc1OC(F)F` [Compound 430, N-{3-Difluoromethoxy-4-[methyl-(1-methyl-1H-imidazo[4,5-c]pyridin-6-yl)-amino]-benzyl}-N-methyl-methanesulfonamide], the IC50 was 0.01 to 100 nM at human JAK1; 0.01 to 100 nM at human JAK2; 0.01 to 100 nM at human JAK3; 0.01 to 100 nM on human TYK2; above 1000 nM in the assay on CTLL-2 cell line; 1000 to 5000 nM with BA/F3 cell line.

For the origin of these results see patent publication US20130217664A1, “NOVEL COMPOUNDS USEFUL FOR THE TREATMENT OF DEGENERATIVE AND INFLAMMATORY DISEASES” (priority 2012, published 2013).
